Structures are written as SMILES.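 Each compound was tested at five concentrations against cells in 96-well plates for 48 hours. At the GI50, growth is halved. The concentration for full growth arrest is given as TGI.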

Among the test systems are COLO 205 colon; M14 melanoma; SN12C renal; HT29 colon; BT-549 breast; T-47D breast; EKVX NSCLC; KM12 colon; NCI-H460 lung; CCRF-CEM leukemia.
Common to all, as to test: NCI anticancer screen, dose series, 48 h

On to `O=C1C=C(NCCO)c2nccc3c2c1nc1ccccc13`, for which the GI50 in the experiment with COLO 205 colon is 14.8 µM; in the experiment on M14 melanoma it was 17.3 µM; with SN12C renal, 18.2 µM; in the experiment on HT29 colon, 26.9 µM; with BT-549 breast, 36 µM; with T-47D breast, 46.2 µM. Also, the GI50 in the experiment on EKVX NSCLC is 26.5 µM; in the experiment on KM12 colon it was 21 µM; with NCI-H460 lung, 6.04 µM; with CCRF-CEM leukemia it was 21.3 µM. The TGI is greater than 100 µM with COLO 205 colon; 58.7 µM with M14 melanoma; greater than 100 µM in the experiment with SN12C renal; greater than 100 µM in the experiment on HT29 colon; greater than 100 µM in the experiment with BT-549 breast; greater than 100 µM in the experiment with T-47D breast. For the same molecule, the TGI in the experiment on EKVX NSCLC is 92.2 µM; in the experiment with KM12 colon, greater than 100 µM; with NCI-H460 lung it was 40.9 µM; with CCRF-CEM leukemia, greater than 100 µM.
As for `C=C1c2nc3ccccc3n2C=C(c2cccc(Cl)c2)N1Cc1ccc(OC)cc1`, the GI50 with COLO 205 colon is 9.14 µM; with M14 melanoma, 0.589 µM; in the experiment with SN12C renal, 1.26 µM; in the experiment on HT29 colon, 7.15 µM; in the experiment on BT-549 breast, 1.7 µM; in the experiment on T-47D breast, 2.55 µM. The GI50 with EKVX NSCLC was 1.07 µM; with KM12 colon, 1.76 µM; in the experiment on NCI-H460 lung, 0.416 µM; with CCRF-CEM leukemia it was 2.75 µM. The TGI with COLO 205 colon is 35.7 µM; in the experiment on M14 melanoma it was greater than 44.2 µM; in the experiment with SN12C renal it was 50.3 µM; with HT29 colon, 53.2 µM; in the experiment on BT-549 breast, greater than 100 µM; in the experiment with T-47D breast it was greater than 80.4 µM. The TGI was 12.8 µM with EKVX NSCLC, 16.6 µM in the experiment with KM12 colon, 10.5 µM in the experiment on NCI-H460 lung and greater than 23.3 µM in the experiment on CCRF-CEM leukemia.
Turning to `C=CCn1c2ccccc2c2c3c(c4c5ccccc5n(CC=C)c4c21)C(=O)N(O)C3=O`, the GI50 in the experiment on COLO 205 colon was 2.01 µM; in the experiment with M14 melanoma, 2.31 µM; in the experiment with SN12C renal, 3.36 µM; with HT29 colon, 2.02 µM; in the experiment with BT-549 breast, 3.27 µM; with T-47D breast, 2.03 µM. Moreover, the GI50 with EKVX NSCLC is 6.34 µM; in the experiment with KM12 colon, 3.2 µM; in the experiment on NCI-H460 lung, 2.78 µM; in the experiment on CCRF-CEM leukemia, 0.971 µM. Moreover, the TGI with COLO 205 colon is 9.31 µM; with M14 melanoma, 26.2 µM; with SN12C renal it was 13.2 µM; in the experiment on HT29 colon, 4.9 µM; with BT-549 breast it was 27.9 µM; in the experiment with T-47D breast it was 33.2 µM. For the same molecule, the TGI in the experiment on EKVX NSCLC is 30.6 µM; with KM12 colon, 18.4 µM; in the experiment on NCI-H460 lung it was 10.7 µM; in the experiment with CCRF-CEM leukemia it was 7.1 µM.
Consider `c1ccc(-c2[nH]ncc2-c2ccnc(-c3ccc(OCCN4CCOCC4)cc3)c2)nc1`, for which the GI50 in the experiment with COLO 205 colon, in the experiment on M14 melanoma, in the experiment with SN12C renal, in the experiment with HT29 colon, in the experiment on BT-549 breast and in the experiment on T-47D breast was greater than 25 µM throughout. Moreover, the GI50 with EKVX NSCLC, in the experiment on KM12 colon, in the experiment with NCI-H460 lung and with CCRF-CEM leukemia was greater than 25 µM in each case. The TGI in the experiment on COLO 205 colon, in the experiment with M14 melanoma, in the experiment with SN12C renal, in the experiment on HT29 colon, in the experiment on BT-549 breast and in the experiment with T-47D breast was greater than 25 µM each time. The TGI in the experiment on EKVX NSCLC, in the experiment with KM12 colon, with NCI-H460 lung and in the experiment on CCRF-CEM leukemia was greater than 25 µM each time.
For the molecule `CN1CCC2(CC1)N=C(SCC(=O)Nc1cnc3ccccc3c1)C(c1ccc(Br)cc1)=N2`, the GI50 in the experiment with COLO 205 colon is 1.64 µM; in the experiment with M14 melanoma, 1.71 µM; in the experiment with SN12C renal it was 2.1 µM; in the experiment on HT29 colon, 1.85 µM; in the experiment with BT-549 breast it was 12 µM; in the experiment on T-47D breast it was 2.24 µM. Moreover, the GI50 in the experiment with EKVX NSCLC is 2.51 µM; in the experiment on KM12 colon it was 2.62 µM; in the experiment with NCI-H460 lung, 2.03 µM; in the experiment with CCRF-CEM leukemia, 2.21 µM. Moreover, the TGI in the experiment with COLO 205 colon came to 3.35 µM; in the experiment with M14 melanoma it was 3.16 µM; in the experiment on SN12C renal, 4.99 µM; in the experiment with HT29 colon, 3.64 µM; with BT-549 breast, 24.4 µM; with T-47D breast, 7.35 µM. The TGI was 10.2 µM with EKVX NSCLC, 6.55 µM in the experiment with KM12 colon, 4.28 µM with NCI-H460 lung and 5.31 µM with CCRF-CEM leukemia.
For the molecule `C=C1C(=O)O[C@H]2[C@H]1CC/C(COC(=O)c1cccnc1N)=C\CC[C@@]1(C)O[C@@H]21`, the GI50 in the experiment with COLO 205 colon was 1.77 µM; with M14 melanoma, 1.12 µM; with SN12C renal it was 2.01 µM; in the experiment on HT29 colon it was 0.721 µM; in the experiment on BT-549 breast, 2.17 µM; in the experiment on T-47D breast it was 1.85 µM. Also, the GI50 was 3.21 µM in the experiment with EKVX NSCLC, 3.19 µM with KM12 colon, 3.09 µM in the experiment on NCI-H460 lung and 0.345 µM with CCRF-CEM leukemia. In addition, the TGI worked out at 3.68 µM with COLO 205 colon; 3.59 µM in the experiment with M14 melanoma; 10.9 µM with SN12C renal; 11 µM with HT29 colon; 5.6 µM with BT-549 breast; 8.01 µM with T-47D breast. Moreover, the TGI in the experiment with EKVX NSCLC was determined as 25.1 µM; in the experiment on KM12 colon it was 11.8 µM; in the experiment with NCI-H460 lung it was 10.8 µM; in the experiment with CCRF-CEM leukemia, 2.47 µM.
Consider `C[C@]12CC[C@H](O[C@@H]3O[C@H](CO[C@@H]4O[C@H](CO)[C@@H](O)[C@H](O)[C@H]4O)[C@@H](O)[C@H](O)[C@H]3O)C[C@@H]1CC[C@@H]1[C@@H]2CC[C@]2(C)[C@@H](C3=CC(=O)OC3)CC[C@]12O`, for which the TGI in the experiment on COLO 205 colon is greater than 76.9 µM; in the experiment with M14 melanoma, 62.9 µM; in the experiment on SN12C renal it was 65.3 µM; with HT29 colon, greater than 100 µM; in the experiment with BT-549 breast, 21.5 µM; with T-47D breast, greater than 95.7 µM. The TGI is 40.4 µM in the experiment with EKVX NSCLC, greater than 100 µM in the experiment with KM12 colon, greater than 44.9 µM in the experiment on NCI-H460 lung and greater than 100 µM in the experiment with CCRF-CEM leukemia.
As for `NCCCNc1nc2ccccc2c2c(=O)c3cc(F)ccc3sc12`, the GI50 in the experiment on COLO 205 colon was 1.69 µM; with M14 melanoma, 1.69 µM; with SN12C renal it was 1.48 µM; with HT29 colon, 1.54 µM; with BT-549 breast, 1.51 µM; in the experiment on T-47D breast, 1.63 µM. The GI50 with EKVX NSCLC was 1.57 µM; with KM12 colon, 1.8 µM; in the experiment with NCI-H460 lung, 1.65 µM; in the experiment on CCRF-CEM leukemia, 1.81 µM. Also, the TGI in the experiment on COLO 205 colon worked out at 3.48 µM; in the experiment with M14 melanoma, 3.11 µM; in the experiment with SN12C renal it was 2.93 µM; with HT29 colon it was 3.14 µM; in the experiment on BT-549 breast, 2.96 µM; in the experiment on T-47D breast, 3.58 µM. In addition, the TGI with EKVX NSCLC came out at 3.01 µM; in the experiment with KM12 colon, 3.36 µM; with NCI-H460 lung, 3.22 µM; with CCRF-CEM leukemia, 3.72 µM.

The record behind these values is PubChem BioAssay (NCI).
